Values quoted from earlier work as cited in patent US20140235552A1 (priority 2013, published 2014).
No end group written: not given here.

Key:
gastrin levels = conditions: 90 mg/day for 6 years or greater; cited from earlier work
[1] = test system: patients with type 2 diabetes; conditions: 12 weeks, cited from earlier work
beta cell mass = conditions: after infusion in rats; cited from earlier work
[2] = test system: human pancreatic ductal tissue; conditions: in vitro, without epidermal growth factor; cited from earlier work

## Cc1c(OCC(F)(F)F)ccnc1C[S+]([O-])c1nc2ccccc2[nH]1 (stereo not shown) [Lansoprazole, 1H-Benzimidazole,2-[[[3-methyl-4-(2,2,2-trifluoroethoxy)-2-pyridinyl]methyl]sulfinyl]-2-[[[3-Methyl-4-(2,2,2-trifluoroethoxy)-2-pyridyl]-methyl]sulfinyl]benzimidazole]
Gastrin levels
  gastrin levels relative to normal: ~7 fold
  safety profile: sustained safety profile

## COc1ccc2nc([S@@+]([O-])Cc3ncc(C)c(OC)c3C)[nH]c2c1 [esomeprazole]
[1]; 20 type 2 diabetes patients, 40 mg
  increase in area under the curve (AUC) of gastrin: 9 fold
[1]; type 2 diabetes, authors' conclusion
  insulin secretion, glycaemic control or cardiovascular disease biomarkers: did not improve
[1]; type 2 diabetes, inventor's reading of the published data
  change in insulin AUC: no decline

## gastrin: gastrointestinal hormone demonstrated to result in new beta cell formation (QGPWLEEEEEAYGWMDF; ends and bridges not checked; UniProt P01350 76-92, looked up)
Beta cell mass
  beta cell mass: doubling
[2]
  beta cell neogenesis from human pancreatic ductal tissue: induce beta cell neogenesis
